The source of these data is patent EP1321493A1, “Method for enhancing the solubility of a colorant” (DSM N.V., priority 2001, dated 2003).

For series [1] the following is noted: according to The Sigma-Aldrich Handbook of Stains, Dyes and Indicators; cited from earlier work.
Series [2] in a line: Solubility / concentration of colorant in toluene. Type of series: physicochemical. Conditions: pure colorant.

Consider `CC1(C)Nc2cccc3c(N=Nc4ccc(N=Nc5ccccc5)c5ccccc45)ccc(c23)N1` [Solvent Black 3], for which the “maximum solubility of the pure dye in water” value (“maximum solubility” below) in series [1] is listed as 0.01%. With `CCN(CC)c1ccc(C(=C2C=CC(=[N+](CC)CC)C=C2)c2ccc(S(=O)(=O)[O-])cc2S(=O)(=O)[O-])cc1.[Na+]` [Acid Blue 1], the “maximum solubility” value in series [1] is given as 3,0%. For `Cl.Cl.Nc1ccc(N=Nc2cccc(N=Nc3ccc(N)cc3N)c2)c(N)c1` [Basic Brown 1], the “solubility in toluene (in words)” value in series [2] is given as “insoluble”. Turning to `O=C1/C(=C2\Nc3ccc(S(=O)(=O)[O-])cc3C2=O)Nc2ccc(S(=O)(=O)[O-])cc21.[Na+].[Na+]` [Acid Blue 74], the “maximum solubility” value in series [1] is 0.3%.
